Source: the supplement of paper PMC10307832

How the values were obtained:
Test in all cases: relative viability (nuclei count vs DMSO), 5 days (fraction); higher = more cells survive
Tanzisertib + Tozasertib = compound: O[C@H]1CC[C@H](Nc2ncc3nc(Nc4c(F)cc(F)cc4F)n([C@H]4CCOC4)c3n2)CC1 [Tanzisertib] + Cc1cc(Nc2cc(N3CCN(C)CC3)nc(Sc3ccc(NC(=O)C4CC4)cc3)n2)n[nH]1 [Tozasertib] (partner 0.1 µM)
Outline: (§1)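 Relative viability was taken as the ratio of nuclei in treated wells to nuclei in vehicle wells. Lung cancer cell lines in 1536-well plates received compounds by pin tool one day after seeding, either one drug alone or a fixed anchor-drug dose plus five library-drug doses (not always all listed) in √10 steps. Nuclei were counted on 4× images after 5 days of treatment, and values are medians of duplicate plates.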

[1] = compound: C1CNCCC1C2=CC(=NN2)C3=CC=NC=C3 + Nc1nc2[nH]cc(CCc3ccc(C(=O)N[C@@H](CCC(=O)O)C(=O)O)cc3)c2c(=O)[nH]1 [Pemetrexed] (partner 0.2 µM)
Outline: as §1

Tanzisertib + Olaparib = compound: O[C@H]1CC[C@H](Nc2ncc3nc(Nc4c(F)cc(F)cc4F)n([C@H]4CCOC4)c3n2)CC1 [Tanzisertib] + O=C(c1cc(Cc2n[nH]c(=O)c3ccccc23)ccc1F)N1CCN(C(=O)C2CC2)CC1 [Olaparib] (partner 8 µM)
Outline: as §1

[2] = compound: C1CNCCC1C2=CC(=NN2)C3=CC=NC=C3 + O=C(CCCCCCC(=O)Nc1ccccc1)NO [Vorinostat] (partner 1 µM)
Outline: as §1

Row | Cell Line | relative viability (Tanzisertib + Tozasertib; first compound 0.08 µM) | relative viability (Tanzisertib + Tozasertib; first compound 0.253 µM) | relative viability (Tanzisertib + Tozasertib; first compound 0.8 µM) | relative viability (Tanzisertib + Tozasertib; first compound 2.53 µM) | relative viability (Tanzisertib + Tozasertib; first compound 8 µM) | relative viability ([1]; first compound 0.08 µM) | relative viability ([1]; first compound 0.8 µM) | relative viability ([1]; first compound 2.53 µM) | relative viability ([1]; first compound 8 µM) | relative viability (Tanzisertib + Olaparib; first compound 0.08 µM) | relative viability (Tanzisertib + Olaparib; first compound 0.253 µM) | relative viability (Tanzisertib + Olaparib; first compound 0.8 µM) | relative viability (Tanzisertib + Olaparib; first compound 2.53 µM) | relative viability (Tanzisertib + Olaparib; first compound 8 µM) | relative viability ([2]; first compound 0.08 µM) | relative viability ([2]; first compound 0.8 µM) | relative viability ([2]; first compound 2.53 µM) | relative viability ([2]; first compound 8 µM)
1 | NCI-H358 | 0.119 | 0.0917 | 0.106 | 0.107 | 0.117 | 0.181 | 0.176 | 0.178 | 0.157 | 0.623 | 0.547 | 0.586 | 0.583 | 0.492 | 0.492 | 0.654 | 0.907 | 0.617
2 | NCI-H1734 | 0.267 | 0.282 | 0.254 | 0.251 | 0.236 | 0.407 | 0.431 | 0.426 | 0.433 | 0.66 | 0.626 | 0.604 | 0.671 | 0.687 | 0.749 | 0.873 | 0.89 | 0.85
3 | A-427 | 0.244 | 0.196 | 0.214 | 0.198 | 0.2 | 0.967 | 0.996 | 0.982 | 0.94 | 0.783 | 0.66 | 0.811 | 0.877 | 0.782 | 0.842 | 0.982 | 0.891 | 0.762
4 | RERF-LC-KJ | 0.386 | 0.554 | 0.61 | 0.383 | 0.442 | 0.464 | 0.493 | 0.516 | 0.463 | 0.997 | 0.925 | 0.942 | 0.94 | 0.912 | 0.553 | 0.727 | 0.862 | 0.712
5 | NCI-H727 | 0.702 | 0.714 | 0.699 | 0.663 | 0.66 | – | – | – | – | 0.69 | 0.678 | 0.553 | 0.734 | 0.686 | 1.25 | 1.08 | 1.29 | 1.18
6 | LCLC-97TM1 | 0.252 | 0.199 | 0.207 | 0.207 | 0.179 | 0.186 | 0.161 | 0.17 | 0.173 | 0.487 | 0.51 | 0.416 | 0.301 | 0.47 | 0.749 | 0.701 | 0.909 | 0.653
7 | ABC-1 | 0.165 | 0.197 | 0.175 | 0.137 | 0.134 | – | – | – | – | 0.838 | 0.757 | 0.634 | 0.701 | 0.792 | 1.2 | 1.01 | 1.1 | 1.14
8 | NCI-H1792 | – | – | – | – | – | 0.909 | 0.73 | 0.831 | 0.849 | 0.813 | 0.572 | 0.498 | 0.345 | 0.436 | – | – | – | –
9 | NCI-H1563 | – | – | – | – | – | 0.818 | 0.662 | 0.961 | 0.904 | – | – | – | – | – | – | – | – | –
10 | EBC-1 | – | – | – | – | – | – | – | – | – | 0.747 | 0.675 | 0.675 | 0.603 | 0.536 | – | – | – | –
11 | IA-LM | – | – | – | – | – | – | – | – | – | 0.738 | 0.765 | 0.754 | 0.859 | 0.789 | 0.974 | 1.06 | 0.95 | 1.03
12 | NCI-H1703 | – | – | – | – | – | – | – | – | – | 0.457 | 0.453 | 0.388 | 0.35 | 0.392 | – | – | – | –
